Data: US12528814B2, “Bifunctional degraders of interleukin-1 receptor-associated kinases and therapeutic use thereof” (NURIX THERAPEUTICS, INC., priority 2020, dated 2026)
pIC50: −log10 of the molar value. Like-named read-outs stand apart in the source and are kept apart here.

Columns and labels:
IRAK4 [1] = molecular target: T1, IRAK4 (Homo sapiens (Human), UniProt Q9NWZ3); experiment: IRAK4 Biochemical HTRF Kinase Assay; details: read-out: IRAK4 HTRF biochemical: IC50
How it was run: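 IC50 values derive from non-linear regression of sixteen concentrations in duplicate. Kinase reaction ran 90 min at ambient temperature after adding 5 μM STK-S1 substrate, 10 mM ATP and 10 mM MgCl2 (reaction-solution levels, pre-dilution to 10 μl); phospho-peptide detected by HTRF after 60 min.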
Target sequence in this assay (Q9NWZ3 whole entry, species assumed): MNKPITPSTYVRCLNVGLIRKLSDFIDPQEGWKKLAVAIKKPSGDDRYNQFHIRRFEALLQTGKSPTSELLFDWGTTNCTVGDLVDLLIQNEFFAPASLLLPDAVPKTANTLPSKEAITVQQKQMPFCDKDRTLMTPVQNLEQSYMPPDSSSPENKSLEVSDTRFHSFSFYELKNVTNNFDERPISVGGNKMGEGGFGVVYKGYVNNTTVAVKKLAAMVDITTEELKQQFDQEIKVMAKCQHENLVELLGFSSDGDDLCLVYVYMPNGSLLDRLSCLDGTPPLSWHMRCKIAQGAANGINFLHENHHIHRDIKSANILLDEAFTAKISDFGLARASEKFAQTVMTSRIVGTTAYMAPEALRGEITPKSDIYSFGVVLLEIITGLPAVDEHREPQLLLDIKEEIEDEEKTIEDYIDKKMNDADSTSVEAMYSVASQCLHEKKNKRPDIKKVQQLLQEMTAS

IRAK4 [2] = molecular target: T1, IRAK4; experiment: IRAK4 Degradation HiBiT Assay; details: HiBiT-tagged Jurkat cells, 4 hrs; for Dmax: Jurkat; for DC50: read-out: Cellular IRAK4 HiBiT: DC50
Target sequence in this assay (Q9NWZ3 whole entry): as the sequence (Q9NWZ3 whole entry, species assumed) above
Method: Compound dilution series (11-point, 3.16-fold dilutions in DMSO, columns 1-11 and 12-22) at 500× the final required concentrations were prepared in Labcyte LDV 384-well plates (cat. no. LP-0200) using a Labcyte Echo 550 Liquid Handler. The 500× solutions ranged from 5 mM to 0.5 μM (final assay concentration range 10 μM to 0.1 nM). Using the Echo, the 500× solutions were stamped into white, 384-well assay plates (Corning, cat. no. 3570) at 60 nL/well. […] C-terminal HiBiT-tagged Jurkat cells (polyclonal cell line or clone 8D5) were plated at 1×10^6 cells/mL, 30 μL/well (3×10^4 cells/well) in complete RPMI (10% FBS, 1% L-glutamine). Cells were incubated for 4 hrs at 32° C./6% CO2.
Following incubation, 30 uL of complete Nano-Glo HiBiT Lytic Detection Reagent (Nano-Glo HiBiT Lytic Buffer with 1:50 Nano-Glo HiBiT Lytic Substrate and 1:100 LgBiT Protein; Promega cat. no. N3040) was added. Cells were further incubated for 10 min at room temperature (RT). Luminescence units (LU) were read on an EnVision plate reader (Perkin Elmer, 0.1 sec per well). Percent IRAK4 remaining per sample was calculated as follows:
Using Graphpad Prism, % IRAK4 remaining values were plotted as a function of compound concentration.

[3] = read-out: Cellular IRAK4 HiBiT: Dmax, Table 4
[4] = read-out: Cellular IRAK4 HiBiT: Dmax, Table 5, multiple runs

Row | Structure (SMILES) | pIC50 (IRAK4 [1]; Table 4) | pIC50 (IRAK4 [1]; Table 5, multiple runs) | Dmax (IRAK4 [2]; [3]) [%] | Dmax (IRAK4 [2]; [4]) [%] | DC50 (IRAK4 [2]; Table 4) [nM] | DC50 (IRAK4 [2]; Table 5, multiple runs) [nM]
1 | Cc1ncsc1-c1ccc([C@H](C)NC(=O)[C@@H]2C[C@@H](O)CN2C(=O)[C@@H](NC(=O)CCOCCOCCOCCOCCOCCC(=O)N2CCN(c3nnc(-c4cnc(-c5ccc6cc(C#N)cnn56)cc4NC(C)C)s3)CC2)C(C)(C)C)cc1 [Example 41, (2S,4R)-1-((S)-2-(tert-butyl)-22-(4-(5-(6-(3-cyanopyrrolo[1,2-b]pyridazin-7-yl)-4-(isopropylamino)pyridin-3-yl)-1,3,4-thiadiazol-2-yl)piperazin-1-yl)-4,22-dioxo-7,10,13,16,19-pentaoxa-3-azadocosanoyl)-4-hydroxy-N—((S)-1-(4-(4-methylthiazol-5-yl)phenyl)ethyl)pyrrolidine-2-carboxamide] | 8.89 | 8.89 | 44 | 47 | 872 | 1330
2 | CNc1cc(-c2ccc3cc(C#N)cnn23)ncc1-c1nnc([C@H]2CC[C@@H](NC(=O)CN3CCN(c4ccc5c(c4)C(=O)N(C4CCC(=O)NC4=O)C5=O)CC3)CC2)s1 (stereo partly drawn) [Example 126, N-((1s,4s)-4-(5-(6-(3-cyanopyrrolo[1,2-b]pyridazin-7-yl)-4-(methylamino)pyridin-3-yl)-1,3,4-thiadiazol-2-yl)cyclohexyl)-2-(4-(2-(2,6-dioxopiperidin-3-yl)-1,3-dioxoisoindolin-5-yl)piperazin-1-yl)acetamide] |  | 9.05 |  | 111 |  | 63.1
3 | CNc1cc(-c2ccc3cc(C#N)cnn23)ncc1-c1nnc(N2CCN(CCC3CCN(c4ccc5c(c4)C(=O)N(C4CCC(=O)NC4=O)C5=O)CC3)CC2)s1 (stereo not drawn) [Example 187, 7-(5-(5-(4-(2-(1-(2-(2,6-dioxopiperidin-3-yl)-1,3-dioxoisoindolin-5-yl)piperidin-4-yl)ethyl)piperazin-1-yl)-1,3,4-thiadiazol-2-yl)-4-(methylamino)pyridin-2-yl)pyrrolo[1,2-b]pyridazine-3-carbonitrile] |  | 9.05 |  | 95 |  | 88.3
4 | CC(C)Nc1cc(-c2ccc3cc(C#N)cnn23)ncc1-c1nnc(N2CCN(C(=O)CCOCCOCCOCCNc3cccc4c3C(=O)N(C3CCC(=O)NC3=O)C4=O)CC2)s1 (stereo not drawn) [Example 11, 7-(5-(5-(4-(3-(2-(2-(2-((2-(2,6-dioxopiperidin-3-yl)-1,3-dioxoisoindolin-4-yl)amino)ethoxy)ethoxy)ethoxy)propanoyl)piperazin-1-yl)-1,3,4-thiadiazol-2-yl)-4-(isopropylamino)pyridin-2-yl)pyrrolo[1,2-b]pyridazine-3-carbonitrile] | 8.89 | 8.89 | 104 | 104 | 128 | 128
5 | CNc1cc(-c2ccc3cc(C#N)cnn23)ncc1-c1nnc(N2CCN(C3CCN(C(=O)c4ccc5c(c4)C(=O)N(C4CCC(=O)NC4=O)C5)CC3)CC2)s1 (stereo not drawn) [Example 99, 7-(5-(5-(4-(1-(2-(2,6-dioxopiperidin-3-yl)-3-oxoisoindoline-5-carbonyl)piperidin-4-yl)piperazin-1-yl)-1,3,4-thiadiazol-2-yl)-4-(methylamino)pyridin-2-yl)pyrrolo[1,2-b]pyridazine-3-carbonitrile] |  | 9.52 |  | 116 |  | 3.59
6 | CNc1cc(-c2ccc3cc(C#N)cnn23)ncc1-c1nnc(C23CCC(NC(=O)CC(C)(C)C(=O)N[C@H](C(=O)N4C[C@H](O)C[C@H]4C(=O)N[C@@H](C)c4ccc(-c5scnc5C)cc4)C(C)(C)C)(CC2)CC3)s1 [Example 155, N4-(4-(5-(6-(3-cyanopyrrolo[1,2-b]pyridazin-7-yl)-4-(methylamino)pyridin-3-yl)-1,3,4-thiadiazol-2-yl)bicyclo[2.2.2]octan-1-yl)-N1—((S)-1-((2S,4R)-4-hydroxy-2-(((S)-1-(4-(4-methylthiazol-5-yl)phenyl)ethyl)carbamoyl)pyrrolidin-1-yl)-3,3-dimethyl-1-oxobutan-2-yl)-2,2-dimethylsuccinamide] |  | 8.62 |  | 90 |  | 519
7 | CC(C)Nc1cc(-c2ccc3cc(C#N)cnn23)ncc1-c1nnc(N2CCN(CC3CCN(c4ccc(C(=O)N(C)C5CCC(=O)NC5=O)cc4)CC3)CC2)s1 (stereo not drawn) [Example 34, 4-(4-((4-(5-(6-(3-cyanopyrrolo[1,2-b]pyridazin-7-yl)-4-(isopropylamino)pyridin-3-yl)-1,3,4-thiadiazol-2-yl)piperazin-1-yl)methyl)piperidin-1-yl)-N-(2,6-dioxopiperidin-3-yl)-N-methylbenzamide] | 8.70 | 8.70 | 85 | 85 | 326 | 326
8 | CN[C@@H](C)C(=O)N[C@H](C(=O)N1CCC[C@H]1c1nc(C(=O)c2cccc(OCCOCCOCCOCCC(=O)N3CCN(c4nnc(-c5cnc(-c6ccc7cc(C#N)cnn67)cc5NC(C)C)s4)CC3)c2)cs1)C1CCCCC1 [Example 55, (S)—N—((S)-2-((S)-2-(4-(3-(2-(2-(2-(3-(4-(5-(6-(3-cyanopyrrolo[1,2-b]pyridazin-7-yl)-4-(isopropylamino)pyridin-3-yl)-1,3,4-thiadiazol-2-yl)piperazin-1-yl)-3-oxopropoxy)ethoxy)ethoxy)ethoxy)benzoyl)thiazol-2-yl)pyrrolidin-1-yl)-1-cyclohexyl-2-oxoethyl)-2-(methylamino)propanamide] | 8.18 | 8.18 | 45 | 45 | 934 | 937
9 | CNc1cc(-c2ccc3cc(C#N)cnn23)ncc1-c1nnc([C@H]2CC[C@H](NC(=O)CCCCCCCNc3ccc4c(c3)C(=O)N(C3CCC(=O)NC3=O)C4=O)CC2)s1 (stereo partly drawn) [Example 67, N-((1r,4r)-4-(5-(6-(3-cyanopyrrolo[1,2-b]pyridazin-7-yl)-4-(methylamino)pyridin-3-yl)-1,3,4-thiadiazol-2-yl)cyclohexyl)-8-((2-(2,6-dioxopiperidin-3-yl)-1,3-dioxoisoindolin-5-yl)amino)octanamide] | 8.79 | 8.74 | 53 | 86 | 10.4 | 45.7
10 | CNc1cc(-c2ccc3cc(C#N)cnn23)ncc1-c1nnc([C@H]2CC[C@H](NC(=O)[C@H]3CC[C@H]3C(=O)N[C@H](C(=O)N3C[C@H](O)C[C@H]3C(=O)N[C@@H](C)c3ccc(-c4scnc4C)cc3)C(C)(C)C)CC2)s1 (racemic) [Example 143, (1RS,2SR)—N1-((1r,4R)-4-(5-(6-(3-cyanopyrrolo[1,2-b]pyridazin-7-yl)-4-(methylamino)pyridin-3-yl)-1,3,4-thiadiazol-2-yl)cyclohexyl)-N2—((S)-1-((2S,4R)-4-hydroxy-2-(((S)-1-(4-(4-methylthiazol-5-yl)phenyl)ethyl)carbamoyl)pyrrolidin-1-yl)-3,3-dimethyl-1-oxobutan-2-yl)cyclobutane-1,2-dicarboxamide] |  | 8.80 |  | 37 |  | 870
11 | CC(C)Nc1cc(-c2ccc3cc(C#N)cnn23)ncc1-c1nnc(N2CCN(C(=O)CCN3CCN(c4ccc5c(c4)C(=O)N(C4CCC(=O)NC4=O)C5=O)CC3)CC2)s1 (stereo not drawn) [Example 14, 7-(5-(5-(4-(3-(4-(2-(2,6-dioxopiperidin-3-yl)-1,3-dioxoisoindolin-5-yl)piperazin-1-yl)propanoyl)piperazin-1-yl)-1,3,4-thiadiazol-2-yl)-4-(isopropylamino)pyridin-2-yl)pyrrolo[1,2-b]pyridazine-3-carbonitrile] | 9.10 | 9.10 | 99 | 97 | 42.7 | 37.2
12 | CC(C)Nc1cc(-c2ccc3cc(C#N)cnn23)ncc1-c1nnc(N2CCN(CCCCc3cccc4c3CN(C3CCC(=O)NC3=O)C4=O)CC2)s1 (stereo not drawn) [Example 28, 7-(5-(5-(4-(4-(2-(2,6-dioxopiperidin-3-yl)-1-oxoisoindolin-4-yl)butyl)piperazin-1-yl)-1,3,4-thiadiazol-2-yl)-4-(isopropylamino)pyridin-2-yl)pyrrolo[1,2-b]pyridazine-3-carbonitrile] | 9.40 | 9.30 | 70 | 70 | 53 | 53.1
13 | CNc1cc(-c2ccc3cc(C#N)cnn23)ncc1-c1nnc(N2CCN(C3CCN(C(=O)c4ccc5c(c4)C(=O)N(C4CCC(=O)NC4=O)C5=O)CC3)CC2)s1 (stereo not drawn) [Example 98, 7-(5-(5-(4-(1-(2-(2,6-dioxopiperidin-3-yl)-1,3-dioxoisoindoline-5-carbonyl)piperidin-4-yl)piperazin-1-yl)-1,3,4-thiadiazol-2-yl)-4-(methylamino)pyridin-2-yl)pyrrolo[1,2-b]pyridazine-3-carbonitrile] |  | 9.52 |  | 109 |  | 6.58
14 | CNc1cc(-c2ccc3cc(C#N)cnn23)ncc1-c1nnc(N2CC3CCC(C2)N3C2CCN(Cc3ccc4c(c3)C(=O)N(C3CCC(=O)NC3=O)C4=O)CC2)s1 (stereo not drawn) [Example 165, 7-(5-(5-(8-(1-((2-(2,6-dioxopiperidin-3-yl)-1,3-dioxoisoindolin-5-yl)methyl)piperidin-4-yl)-3,8-diazabicyclo[3.2.1]octan-3-yl)-1,3,4-thiadiazol-2-yl)-4-(methylamino)pyridin-2-yl)pyrrolo[1,2-b]pyridazine-3-carbonitrile] |  | 9.40 |  | 100 |  | 21
